Experimental data published in patent US5888994A, “Fluorinated Vitamin D3 analogs” (Hoffmann-La Roche Inc., priority 1997, dated 1999).

How the values were obtained:
HL-60 cells = test: HL-60 cell differentiation (oxidative burst via NBT reduction); format: cell-based; conditions: Homo sapiens, 72 h, 3 days, NBT reduction at 540 nm, mean of 3 wells, read-out: ED50 (concentration leading to 50% of maximal differentiation achieved with 100-1000 nM calcitriol)
Method: The induction of differentiation of HL-60 cells was assayed by measuring their oxidative burst potential via the reduction of NBT (Nitrobluetetrazolium).
30,000 cells/90 μl of RPMI/FCS were seeded into flat-bottomed microtiter wells. 10 μl of vitamin D derivatives diluted in complete medium were added at the same time to yield final concentrations between 10^-11 and 10^-6 M (stock solutions of 10^-2 M in ethanol were kept at -20° C. and protected from light).
Values were expressed as percent of maximal differentiation achieved with 100-1000 nM calcitriol in the same experiment.

HaCaT cells = test: Inhibition of keratinocyte proliferation (3H-thymidine uptake, HaCaT); format: cell-based; conditions: HaCaT human keratinocyte line, 6 days of culture
Method: HaCaT cell line--The immortalized human cell line HaCaT was used. ^3 H-thymidine incorporation was measured in exponentially growing cultures after 6 days of culture in presence of the test compound.
Cell culture--HaCaT cells were cultured in Dulbecco's Modified Eagle Medium (DMEM) and Nutrient Mixture Ham's F12 (F12), 3:1 (v/v, ICN) containing 4.5 g/l glucose and supplemented with 10% fetal calf serum (Gibco, FCS), L-glutamine (Gibco, 2mM), penicillin (Gibco, 50 UI/ml), streptomycin (Gibco, 50 μg/ml), EGF (10 ng/ml), hydrocortisone (400 ng/ml), cholera toxin (8.5 ng/ml) and insulin (5 ng/ml). The cells were maintained in a humidified atmosphere containing 5% CO2 and 95% air and passaged every 3-4 days.
Inhibition of ^3 H-thymidine uptake--HaCaT cells (250 cells in complete culture medium) were seeded into 96-well culture dishes and incubated at 37° C. with 5% CO2 and 95% air for 6 days. Inhibitors, dissolved at 10× concentration in 1% ethanol, were added immediately at the beginning of the assay. ^3 H-thymidine (5 Ci/mmol, Amersham) was added at a concentration of 1 μCi/well and cells were pulse-labelled for the last 6 hours of the growth period. Cells were then trypsinized for 10 minutes at 37° C. under a vigorous agitation and harvested on to a 96-well GF/C filter plate (Uni Filter, Packard) using a Micro Mate 196 cell harvester (Packard). After drying at 40° C. under vacuum for 20-30 minutes, 2 μl of Micro Scint 0 scintillator (Packard) were added and the radioactivity bound to the filters was counted on a TOP COUNT (Packard).

[1] = Calcium liability (tolerance test in mice); conditions: mouse, in vivo, sc, daily subcutaneous administration for 4 consecutive days, 5 day treatment period, read-out: HTD (highest tolerated dose: dose which results in zero weight gain)
Excerpt: Profound changes in calcium homeostasis strongly affect the weight development of the animals. This parameter was used as a primary test for tolerance.
Mice (25-30 g body weight) received daily subcutaneous administrations of the vitamin D derivative for 4 consecutive days. Body weight was registered just before and at the end of a […] treatment period. The "highest tolerated dose" (HTD) is the dose which results in zero weight gain during this treatment period.

sebaceous cells = test: Inhibition of human sebocyte proliferation in vitro; format: cell-based; conditions: tested at 10^-6, 10^-7 and 10^-8 M, vs vehicle-treated culture, read-out: ED50 (amount of compound necessary to inhibit the proliferation of sebaceous cells by 50%)
Method: Sebaceous cells were isolated from adult human sebaceous glands by a combination of enzymatic and mechanical methods (Doran et al., Characterization of Human Cells In Vitro, J. Invest. Dermatol. 96:34-8 (1991)). The cells were cultured in Iscove's medium containing 10% fetal calf serum and 4 μg/ml dexamethasone on a layer of growth-arrested 3T3 mouse fibroblasts. Cells were plated in medium without the test compound and then given test compound in fresh medium, containing the test compound, every 48 hours. On the day of harvesting, the cultures were rinsed with 0.03% EDTA in PBS, to remove only the 3T3 fibroblasts, followed by incubation in 0.05% trypsin/0.03% EDTA. The cells were suspended, mixed vigorously to prepare a single cell suspension and counted in a hemocytometer.
Stock solutions of compounds were made up as 10^-2 M solutions in degassed 100% ethanol and stored at -20° C. in the dark. During experimental use, the solutions, which have been aliquoted, were brought to room temperature and used by diluting directly into complete medium to appropriate concentration.
The compounds were tested for the inhibition of proliferation of sebaceous cell growth in vitro at 10^-6, 10^-7 and 10^-8 M.
The results are summarized in Table III below as the amount of compound necessary to inhibit the proliferation of sebaceous cells by 50% (ED50) in nM as compared to a vehicle-treated culture.

Row | Compound | EC50 (HL-60 cells) | IC50 (HaCaT cells) | MTD at 120 h [1] | IC50 (sebaceous cells)
1 | C[C@H](CC#CC(C)(O)C(F)(F)F)C1=CC[C@H]2/C(=C/C=C3C[C@@H](O)C[C@H](O)C3)CCC[C@]12C (stereo partly drawn) [1,25(R,S)-Dihydroxy-16-ene-23-yne-26-trifluoro-19-nor-cholecalciferol] | 0.37 nM | 5.1 nM | 0.002 mg/kg | –
2 | C=C1/C(=C\C=C2/CCC[C@]3(C)C([C@H](C)CC#CC(C)(O)C(F)(F)F)=CC[C@@H]23)C[C@@H](O)C[C@@H]1O (stereo partly drawn) [1,25(R,S)-Dihydroxy-16-ene-23-yne-26-trifluoro-cholecalciferol] | 0.15 nM | 10 nM | 0.001 mg/kg | 1 nM
3 | C=C1/C(=C\C=C2/CCC[C@]3(C)[C@@H]([C@H](C)CCCC(C)(C)O)CC[C@@H]23)C[C@@H](O)C[C@@H]1O [1,25-Dihydroxycholecalciferol, reference compound] | 8 nM | – | – | –
4 | C=C1/C(=C\C=C2/CCC[C@]3(C)C([C@H](C)CC#CC(C)(O)C(F)(F)F)=CC[C@@H]23)C[C@@H](O)C[C@@H]1F (stereo partly drawn) [1α-fluoro-25(R,S)-hydroxy-16-ene-23-yne-26-trifluoro-cholecalciferol] | 3.7 nM | 11 nM | 0.02 mg/kg | –
5 | C=C1CC[C@H](O)C/C1=C/C=C1\CCC[C@]2(C)C([C@H](C)CC#CC(C)(O)C(F)(F)F)=CC[C@@H]12 (stereo partly drawn) [25(R,S)-Hydroxy-16-ene-23-yne-26-trifluoro-cholecalciferol] | 160 nM | 650 nM | 0.6 mg/kg | –
